{"source": "patent US20080139797A1", "about": "“OLIGONUCLEOTIDES CONTAINING HIGH CONCENTRATIONS OF GUANINE MONOMERS” (INTEGRATED DNA TECHNOLOGIES, INC., priority 2006, published 2008)", "assay": "Solubility of monomers and BTT in 1:1 mixes of acetonitrile and a solvent", "format": "physicochemical", "description": "The BTT (MW 192.2., water content ≦75 ppm) was supplied by emp Biotech GmbH (catalog no. NC-0101-1K, charge/lot no. 050904). The dT (MW 744.83), dG^ibu (MW 839.92), dA^bz (MW 857.93), dC^bz (MW 833.93) monomers were supplied by Proligo. The acetonitrile (MeCN) has a viscosity of 0.345 cP at 25° C. and a dipole moment of 3.92 D.\n74.5 mg (100 μmol) of dT monomer was weighed out into each of 7 screw-topped 10 ml vials. 84 mg (100 μmol) of dG^ibu monomer was weighed out into each of 7 screw-topped 10 ml vials. 86 mg (100 μmol) of dA^bz monomer was weighed out into each of 7 screw-topped 10 ml vials. 83 mg (100 μmol) of dC^bz monomer was weighed out into each of 7 screw-topped 10 ml vials. 228 mg (1.2 mmol) of BTT was weighed out into each of 7 screw-topped 10 ml vials.\nSix different solvent mixes were prepared by mixing 10 ml of dry acetonitrile with 10 ml of one of the 6 different solvents listed above in separate dry bottles under argon.\nTo each separate vial of T monomer was added 1 ml of one of the 6 different solvent mixes or pure acetonitrile. The vials were quickly closed and agitated gently. This was repeated with the vials of dG, dA and dC monomers.\nTo each separate vial of BTT was added 4 ml of one of the 6 solvent mixes."}
{"smiles": "c1ccc(CSc2nnn[nH]2)cc1", "note": "[BTT, 5-benzylthiotetrazole]", "values": [{"measurement": "dissolution of BTT", "setting": "0.3 M, solvent mixes, all cases except HFIP/MeCN", "result": "practically instantaneous"}, {"measurement": "solubility of BTT", "setting": "at 0.3 M in all 5 mixes (acetonitrile 1:1 with NMP, DMA, TMU, DMSO, sulfolane)", "result": "soluble"}, {"measurement": "dissolution of BTT", "setting": "pure acetonitrile, compared with the solvent mixes, gentle warming required for rapid dissolution", "result": "not as fast"}]}
